Laboratory results reported in US4028383A, “Indolopyrones having antiallergic activity” (Warner-Lambert Company, priority 1975, dated 1977).

System: PCA reaction
Assay: passive cutaneous anaphylaxis (PCA) procedure
Format: in vivo, male rats
Settings: for % Inhibition: rats, 30 minutes prior to challenge
Experimental: In this procedure, male rats, between 180 and 200 grams in weight are passively sensitized forty-eight or seventy-two hours prior to test with rat sera containing reagintype antibodies. These sera are injected intradermally in four separate sites, two on each side of the ventral midline. Dose volume is 0.1 ml.
On the test-day animals receive drug or vehicle (placebo) 30 minutes prior to challenge. Test compounds are given i.p. on an mg/kg basis; usual volume is 0.5 ml/100 g body weight. Controls receive the vehicle, on the same weight-volume basis.
The challenging dose of 1.0 ml of Antigen-Evans Blue is administered i.v. This is prepared from either Ovalbumin or dinitrophenylated bovine gamma globulin, 10 mg, together with 5 ml of 0.5% Evans Blue, U.S.P., and 5 ml of normal saline. At 30 minutes after challenge each rat is sacrificed. A section of skin that includes the four sensitizing injection sites is removed.
Reaction is indicated by a blue coloration of the site and scored on the basis of color intensity. Size of the site is also reported.
Data is reported as the arithmetic mean score of a specific site for that group of five animals; the size of the spot is also reported as the mean for the group.
The relation between dilution of antibody and mean spot diameters approximates a straight line which is constructed by the method of least squares for the control animals. The maximum antibody concentration is set as "100% reactivity", with the extrapolated "zero" antibody concentration being 0%. Using this line the diameter at the highest antibody concentrations in any treated group is expressed as a percent of the control, i.e. "% inhibition." The treatment is judged "active" if the inhibition is 50% or greater.

Cn1c2ccccc2c2oc(C(=O)O)cc(=O)c21 [Example 5, 4,5-dihydro-5-methyl-4-oxopyrano[3,2-b]indole-2-carboxylic acid]
% Inhibition (1.0 mg/kg I.P.): 30%
% Inhibition (5.0 mg/kg I.P.): 100%
% Inhibition (10.0 mg/kg I.P.): 100%
% Inhibition (25.0 mg/kg I.P.): 100%
antiallergic activity in passive cutaneous anaphylaxis (male rats, i.p. 30 minutes prior to challenge): highly effective as an antiallergic
